Like-named read-outs stand apart in the source and are kept apart here.
Tests used:
[1] = system: MIA PaCa-2-AMGR drug-resistant cell line; assay: MIA PaCa-2-AMGR drug-resistant cell proliferation inhibitory activity test; type: cell-based; conditions: 72 h, MIA PaCa-2-AMGR drug-resistant cells, 3 days incubation, CellTiter-Glo
Description: Test Example 7: Generation of MIA PaCa-2-AMGR drug-resistant cell line
(§1) MIA PaCa-2 cells were seeded and cultured at 50 to 70% confluence in six-well plate with DMEM (10% FBS+2.5% horse serum) medium at 37° C. with 5% CO2. AMG510 was added for induction at three starting concentrations of 1 nM, 10 nM and 50 nM, and the medium containing the same concentration of AMG510 was replaced every 3 days. Cells were passaged once they reached confluence. After every two passages at a given concentration of drug, the concentration was increased in a 3-fold increment until final concentrations of 1 μM for AMG510 was achieved.
(§2) MIA PaCa-2-AMGR cells in logarithmic growth phase were collected and seeded into a clear-bottom 96-well plate at a density of 4×10^3 cells per well in 80 μL of medium, and then incubated overnight at 37° C. with 5% CO2. The compounds were serially diluted 5-fold in DMSO to obtain 8 concentrations, and then further diluted with DMEM (10% FBS+2.5% horse serum) cell culture medium to obtain the working solutions (5×), 20 μL of each working solution was added to the cell culture supernatant in each well, and the plate was further incubated for 3 days at 37° C. with 5% CO2. The plate was then equilibrated with CellTiter-Glo® reagent at room temperature (25° C.) for 10-30 minutes. After aspirating 50 μL of the medium, 50 μL of CellTiter-Glo® reagent was added. The cells were thoroughly mixed with the CellTiter-Glo® reagent using a microplate shaker for 2 minutes, and then incubated at room temperature for 10 minutes. The 96-well plate was placed in a multi-mode microplate reader to record the luminescence values (RLU).
(§3) The inhibitory rate was calculated using the following formula: […]
Data were analyzed using GraphPad Prism for IC50 values (Note: The negative control refers to the group without inhibitor) The data were presented m Table 9

PI3Kα = PI3Kα (Homo sapiens (Human), UniProt P42336); assay: Inhibition of PI3Kα efficacy assay (ADP-Glo kinase assay); type: biochemical; conditions: read-out: PI3Kα inhibitory activity (IC50)
Sequence of PI3Kα (P42336 whole entry): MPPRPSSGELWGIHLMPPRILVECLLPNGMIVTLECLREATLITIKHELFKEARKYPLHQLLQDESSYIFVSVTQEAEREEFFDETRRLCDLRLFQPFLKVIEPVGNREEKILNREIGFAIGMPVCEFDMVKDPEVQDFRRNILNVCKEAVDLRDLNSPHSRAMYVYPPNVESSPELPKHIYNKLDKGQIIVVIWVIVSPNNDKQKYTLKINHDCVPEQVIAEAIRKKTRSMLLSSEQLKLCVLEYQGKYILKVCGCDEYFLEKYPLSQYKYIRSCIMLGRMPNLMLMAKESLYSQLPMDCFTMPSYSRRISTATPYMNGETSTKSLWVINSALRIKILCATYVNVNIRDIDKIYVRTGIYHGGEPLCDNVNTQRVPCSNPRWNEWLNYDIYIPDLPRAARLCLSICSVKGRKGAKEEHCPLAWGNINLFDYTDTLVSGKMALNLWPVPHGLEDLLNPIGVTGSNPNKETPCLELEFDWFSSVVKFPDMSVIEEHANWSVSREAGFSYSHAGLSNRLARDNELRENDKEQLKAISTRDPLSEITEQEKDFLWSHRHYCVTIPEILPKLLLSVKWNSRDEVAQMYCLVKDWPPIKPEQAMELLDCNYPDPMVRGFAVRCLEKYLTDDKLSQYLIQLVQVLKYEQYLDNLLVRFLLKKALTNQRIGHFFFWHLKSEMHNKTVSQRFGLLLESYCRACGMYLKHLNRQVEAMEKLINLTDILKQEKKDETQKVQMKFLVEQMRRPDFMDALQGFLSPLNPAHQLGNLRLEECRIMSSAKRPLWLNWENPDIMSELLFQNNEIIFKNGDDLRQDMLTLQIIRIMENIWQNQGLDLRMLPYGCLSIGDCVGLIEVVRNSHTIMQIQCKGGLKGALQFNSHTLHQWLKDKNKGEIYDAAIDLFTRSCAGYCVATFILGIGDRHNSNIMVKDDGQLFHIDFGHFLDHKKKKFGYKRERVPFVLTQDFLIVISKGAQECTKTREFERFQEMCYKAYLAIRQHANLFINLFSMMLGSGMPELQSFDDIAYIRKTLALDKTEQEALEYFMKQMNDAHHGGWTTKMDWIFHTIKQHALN
Sequence of PI3Kα (P27986 whole entry partner): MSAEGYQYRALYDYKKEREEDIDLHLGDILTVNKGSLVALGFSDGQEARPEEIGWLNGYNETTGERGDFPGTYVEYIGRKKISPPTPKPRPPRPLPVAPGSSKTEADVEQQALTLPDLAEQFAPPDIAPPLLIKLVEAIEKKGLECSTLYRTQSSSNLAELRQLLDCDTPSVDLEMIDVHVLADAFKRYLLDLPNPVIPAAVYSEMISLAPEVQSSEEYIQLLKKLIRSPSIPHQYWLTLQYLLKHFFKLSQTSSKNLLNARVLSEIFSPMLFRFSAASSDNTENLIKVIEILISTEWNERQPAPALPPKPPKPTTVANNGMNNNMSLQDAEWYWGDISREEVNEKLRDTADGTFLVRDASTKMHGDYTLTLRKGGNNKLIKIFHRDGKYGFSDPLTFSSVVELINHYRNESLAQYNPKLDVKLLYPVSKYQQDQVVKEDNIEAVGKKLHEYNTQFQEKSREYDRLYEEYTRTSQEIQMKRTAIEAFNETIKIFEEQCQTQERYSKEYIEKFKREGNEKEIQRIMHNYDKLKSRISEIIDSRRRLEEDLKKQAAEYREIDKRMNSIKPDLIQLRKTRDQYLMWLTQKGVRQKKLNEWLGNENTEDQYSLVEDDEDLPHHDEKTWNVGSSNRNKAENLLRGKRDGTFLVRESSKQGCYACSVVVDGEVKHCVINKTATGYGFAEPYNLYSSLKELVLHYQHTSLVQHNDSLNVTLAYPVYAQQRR
Outline: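 Eight five-fold dilutions of compound (2 mM DMSO stock) tested; kinase reaction with PI and ATP ran 60 min at RT, followed by ADP-Glo and detection reagent steps of 40 min each. Four-parameter logistic fitting gave IC50 values.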

[2] = system: MIA PaCa-2 cells (KRAS G12C mutant); assay: MIA PaCa-2 cell anti-proliferation (CellTiter-Glo); type: cell-based; conditions: Homo sapiens, 72 h; MIA Paca-2 cells, 3 days, Table 7; read-out: MIA PaCa-2 (IC50)
Outline: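 Viable-cell luminescence (CellTiter-Glo, ≥30 min at 25 °C) measured after a 3-day, 37 °C exposure to compounds at 9 points, 4-fold spaced, in DMEM containing 10% FBS plus 2.5% horse serum. IC50 derived versus no-inhibitor wells.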

[3] = system: NCI-H358-AMGR drug-resistant cell line; assay: NCI-H358-AMGR drug-resistant cell proliferation inhibitory activity test; type: cell-based; conditions: 72 h; NCI-H358-AMGR drug-resistant cells, 3 days incubation, CellTiter-Glo
Description: Test Example 6t Generation of NCI-H358-AMGR Drug-Resistant Cell Line
as §1, with “NCI-H358 cells” for “MIA PaCa-2 cells”, “with RPMI-640” for “with DMEM”, “(10% FBS)” for “(10% FBS+2.5% horse serum)”, “with 5%4” for “with 5%”, “After every,” for “After every”, “a 3-old” for “a 3-fold”
as §2, with “NCI-H358-AMGR cells” for “MIA PaCa-2-AMGR cells”, “with RPMI-640)” for “with DMEM”, “(10% FBS)” for “(10% FBS+2.5% horse serum)”, “of CellTiter-Glo®,” for “of CellTiter-Glo®”, “the CellTiter-Glo®,” for “the CellTiter-Glo®”, “The […]” for “The 96-well”
as §3
Data were analyzed using GraphPad Prism for IC50 values (Note: The negative control refers to the group without inhibitor).

[4] = system: NCI-H358 cells (KRAS G12C mutant); assay: NCI-H358 cell proliferation inhibition (CellTiter-Glo); type: cell-based; conditions: Homo sapiens, NCI-H358, 72 h; H358 cells (G12C mutation), 3 days, Table 6; read-out: NCI-H358 (IC50)
PI3Kδ = PI3Kδ (Homo sapiens (Human), UniProt O00329); assay: Inhibition of PI3Kδ efficacy assay (ADP-Glo kinase assay); type: biochemical; conditions: Table 4; read-out: PI3Kδ inhibitory activity (IC50)
Sequence of PI3Kδ (O00329 whole entry): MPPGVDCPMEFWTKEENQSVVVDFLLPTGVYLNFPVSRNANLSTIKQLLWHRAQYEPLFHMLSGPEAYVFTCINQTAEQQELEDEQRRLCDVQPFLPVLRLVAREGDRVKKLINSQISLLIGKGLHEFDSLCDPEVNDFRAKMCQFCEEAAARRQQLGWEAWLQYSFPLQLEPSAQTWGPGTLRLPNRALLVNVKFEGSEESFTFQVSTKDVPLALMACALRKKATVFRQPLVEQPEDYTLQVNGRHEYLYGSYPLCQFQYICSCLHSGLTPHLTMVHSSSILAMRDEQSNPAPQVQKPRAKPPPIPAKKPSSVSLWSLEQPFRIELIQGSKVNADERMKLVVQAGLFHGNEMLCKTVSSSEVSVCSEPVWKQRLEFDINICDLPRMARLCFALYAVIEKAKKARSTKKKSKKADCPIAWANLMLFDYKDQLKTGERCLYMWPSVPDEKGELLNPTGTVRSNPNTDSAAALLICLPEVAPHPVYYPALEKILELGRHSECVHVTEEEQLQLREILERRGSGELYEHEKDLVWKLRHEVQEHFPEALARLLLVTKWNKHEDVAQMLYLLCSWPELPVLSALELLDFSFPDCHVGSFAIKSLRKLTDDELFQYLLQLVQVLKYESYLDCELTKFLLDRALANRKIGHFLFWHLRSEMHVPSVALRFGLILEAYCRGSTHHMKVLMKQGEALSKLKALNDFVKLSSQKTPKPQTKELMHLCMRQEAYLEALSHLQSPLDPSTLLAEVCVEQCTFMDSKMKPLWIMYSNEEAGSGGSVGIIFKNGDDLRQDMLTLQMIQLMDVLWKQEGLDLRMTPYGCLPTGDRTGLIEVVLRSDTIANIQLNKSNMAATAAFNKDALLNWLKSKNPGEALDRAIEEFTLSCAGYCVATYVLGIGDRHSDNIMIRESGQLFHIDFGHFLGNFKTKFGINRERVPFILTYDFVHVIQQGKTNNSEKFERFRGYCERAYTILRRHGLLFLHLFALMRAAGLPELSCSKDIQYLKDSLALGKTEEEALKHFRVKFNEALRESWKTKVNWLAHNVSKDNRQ
Sequence of PI3Kδ (P27986 whole entry partner): as the sequence (P27986 whole entry partner) above
Outline: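 Luminescent ADP-Glo readout of PI3Kδ: after a 60 min RT reaction with PI/ATP substrate, ATP depletion (40 min) and ADP detection (40 min) steps followed. Compounds tested as eight five-fold serial dilutions; inhibition rates fitted to log(inhibitor) vs. response, variable slope, for IC50.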

KRAS^G12C-SOS1 = KRAS^G12C-SOS1 (Homo sapiens (Human), UniProt P01116, G12C); assay: HTRF KRAS G12C/SOS1 binding assay; conditions: Table 5
Sequence of KRAS^G12C-SOS1 (P01116-2 other isoform, or with tags, fused parts or gaps G12C): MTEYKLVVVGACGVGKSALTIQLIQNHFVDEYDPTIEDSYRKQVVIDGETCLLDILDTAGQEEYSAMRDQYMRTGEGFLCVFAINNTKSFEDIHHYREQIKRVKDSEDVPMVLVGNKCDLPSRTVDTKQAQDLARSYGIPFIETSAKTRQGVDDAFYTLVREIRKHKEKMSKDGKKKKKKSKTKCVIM
Description: Initially, a 2 mM stock solution of the test compound (dissolved in DMSO) was serially diluted in five-fold concentrations using DMSO to obtain eight working solutions 1 (200×). Subsequently, each of the eight working solutions 1 was further diluted in a 20-fold gradient by adding 5 μL into 95 μL of Diluent buffer, mixed completely with vortex mixer, resulting in eight working solutions 2 (10×). […] Subsequently, 5 μL of Anti-tag 1-Tb^3+ stock solution and 5 μL of Anti-tag2-XL665 were added to each well, mixed, and incubated at 4° C. for 3 hours. Remove the plate and read on an HTRF® compatible reader, with the excitation light wavelength set at 337 nm and readings recorded at 620 nm and 665 nm. The data results were presented as the ratio of the 665 nm signal value to the 620 nm signal value for each well, calculated as follows: […]. The inhibition rate was calculated using the following formula: […]
Data were analyzed using GraphPad Prism with log (inhibitor) vs. response-Variable Slope (four parameters) fitting calculations for IC50 values.

C=CC(=O)N1CCN(c2ncnc3ccc(-c4cnc(OC)c(NS(=O)(=O)c5ccc(F)cc5F)c4)cc23)CC1 [Example 1, N-(5-(4-(4-acryloylpiperazin-1-yl)quinazolin-6-yl)-2-methoxypyridin-3-yl)-2,4-difluorobenzenesulfonamide]
IC50 [1]: 36 nM
IC50 (PI3Kα; Table 1): 0.26 nM
IC50 [2]: 98 nM
IC50 [3]: 27 nM
IC50 [4]: 21 nM

COc1ccc(S(=O)(=O)Nc2cc(-c3ccc4ncnc(N5CCN(C(=O)/C=C/C(C)=O)CC5)c4c3)cnc2OC)c(F)c1 [Example 185, (E)-2-fluoro-4-methoxy-N-(2-methoxy-5-(4-(4-(4-oxopent-2-enoyl)piperazin-1-yl)quinazolin-6-yl)pyridin-3-yl)benzene-sulfonamide]
IC50 [1]: 45.7 nM
IC50 (PI3Kα; Table 4): 1.6 nM
IC50 [2]: 104 nM
IC50 [3]: 131 nM
IC50 [4]: 69.4 nM

COc1ncc(-c2ccc3ncnc(N4CCN(C(=O)/C=C/C(C)=O)CC4)c3c2)cc1NS(=O)(=O)c1c(C)cccc1F [Example 186, (E)-2-fluoro-N-(2-methoxy-5-(4-(4-(4-oxopent-2-enoyl)piperazin-1-yl)quinazolin-6-yl)pyridin-3-yl)-6-methyl-benzene-sulfonamide]
IC50 [1]: 31.3 nM
IC50 (PI3Kα; Table 4): 2.4 nM
IC50 [2]: 52.9 nM
IC50 [3]: 43.9 nM
IC50 [4]: 25.4 nM

COc1ncc(-c2ccc3ncnc(N4CCN(C(=O)/C=C/C(C)=O)CC4)c3c2)cc1NS(=O)(=O)c1ccc(F)c2ccccc12 [Example 187, (E)-4-fluoro-N-(2-methoxy-5-(4-(4-(4-oxopent-2-enoyl)piperazin-1-yl)quinazolin-6-yl)pyridin-3-yl)naphthalene-1-sulfonamide]
IC50 [1]: 224 nM
IC50 (PI3Kα; Table 4): 4.6 nM
IC50 [2]: 173 nM
IC50 [3]: 373 nM
IC50 [4]: 140 nM

COc1ncc(-c2ccc3ncnc(N4[C@H](C)CN(C(=O)/C=C/C(C)=O)C[C@@H]4C)c3c2)cc1NS(=O)(=O)c1ccccc1F [Example 193, N-(5-(4-((2R,6S)-2,6-dimethyl-4-((E)-4-oxopent-2-enoyl)piperazin-1-yl)quinazolin-6-yl)-2-methoxypyridin-3-yl)-2-fluorobenzenesulfonamide]
IC50 [1]: 66.2 nM
IC50 (PI3Kα; Table 4): 2.8 nM
IC50 [2]: 115 nM
IC50 [3]: 21.6 nM
IC50 [4]: 52.7 nM

COc1ncc(-c2ccc3ncnc(N4CCN(C(=O)/C=C/C(C)=O)CC4)c3n2)cc1NS(=O)(=O)c1cnccc1C [Example 223, (E)-N-(2-methoxy-5-(4-(4-(4-oxopent-2-enoyl)piperazin-1-yl)pyrido[3,2-d]pyrimidin-6-yl)pyridin-3-yl)-4-methyl-pyridine-3-sulfonamide]
IC50 [1]: 63.1 nM
IC50 [2]: 94.4 nM
IC50 [3]: 85.2 nM
IC50 [4]: 135 nM

CC(=O)/C=C/C(=O)N1CCN(c2ncnc3ccc(-c4cnc(OC(F)(F)F)c(NS(=O)(=O)c5ccc(F)cc5F)c4)nc23)CC1 [Example 226, (E)-2,4-difluoro-N-(5-(4-(4-(4-oxopent-2-enoyl)piperazin-1-yl)pyrido[3,2-d]pyrimidin-6-yl)-2-(trifluoro-methoxy)pyridin-3-yl)benzene-sulfonamide]
IC50 [1]: 424 nM
IC50 (PI3Kα; Table 4): 1.4 nM
IC50 [2]: 357 nM
IC50 [3]: 359 nM
IC50 [4]: 248 nM

COc1ncc(-c2ccc3ncnc(N4CCN(C(=O)/C=C/C(C)=O)CC4)c3n2)cc1NS(=O)(=O)c1c(C)cccc1F [Example 229, (E)-2-fluoro-N-(2-methoxy-5-(4-(4-(4-oxopent-2-enoyl)piperazin-1-yl)pyrido[3,2-d]pyrimidin-6-yl)pyridin-3-yl)-6-methyl-benzene-sulfonamide]
IC50 [1]: 31.3 nM
IC50 (PI3Kα; Table 4): 3 nM
IC50 [2]: 40.8 nM
IC50 [3]: 30 nM
IC50 [4]: 24 nM

COc1ncc(-c2ccc3ncnc(C4CCN(C(=O)/C=C/C(C)=O)CC4)c3n2)cc1NS(=O)(=O)c1c(F)cccc1Cl [Example 235, (E)-2-chloro-6-fluoro-N-(2-methoxy-5-(4-(1-(4-oxopent-2-enoyl)piperidin-4-yl)pyrido[3,2-d]pyrimidin-6-yl)pyridin-3-yl)benzenesulfonamide]
IC50 (PI3Kδ): 2.38 nM
IC50 (PI3Kα; Table 4): 0.3 nM
IC50 (KRAS^G12C-SOS1): 113 nM

COc1ncc(-c2ccc3ncnc(C4=CCN(C(=O)/C=C/C(C)=O)CC4)c3n2)cc1NS(=O)(=O)c1c(F)cc(F)cc1F [Example 236, (E)-2,4,6-trifluoro-N-(2-methoxy-5-(4-(1-(4-oxopent-2-enoyl)-1,2,3,6-tetrahydropyridin-4-yl)pyrido[3,2-d]pyrimidin-6-yl)pyridin-3-yl)benzenesulfonamide]
IC50 [1]: 28.8 nM
IC50 (PI3Kα; Table 4): 1.7 nM
IC50 [2]: 34.6 nM
IC50 [3]: 44.7 nM
IC50 [4]: 19.5 nM

COc1ncc(-c2ccc3ncnc(C4=CCN(C(=O)/C=C/C(C)=O)CC4)c3n2)cc1NS(=O)(=O)c1c(F)cccc1Cl [Example 241, (E)-2-chloro-6-fluoro-N-(2-methoxy-5-(4-(1-(4-oxopent-2-enoyl)-1,2,3,6-tetrahydropyridin-4-yl)pyrido[3,2-d]pyrimidin-6-yl)pyridin-3-yl)benzenesulfonamide]
IC50 (PI3Kδ): 2.96 nM
IC50 (PI3Kα; Table 4): 0.27 nM
IC50 (KRAS^G12C-SOS1): 454 nM

COc1ncc(-c2ccc3ncnc(C4CCN(C(=O)/C=C/C(C)=O)C4)c3c2)cc1NS(=O)(=O)c1ccc(F)cc1F (centres unmarked) [Example 247, (E)-2,4-difluoro-N-(2-methoxy-5-(4-(1-(4-oxopent-2-enoyl)pyrrolidin-3-yl)quinazolin-6-yl)pyridin-3-yl)benzenesulfonamide]
IC50 (PI3Kδ): 3.33 nM
IC50 (PI3Kα; Table 4): 0.53 nM
IC50 (KRAS^G12C-SOS1): 277 nM
